Experimental data reported in US7858800B2, “Biaryl derivatives” (Banyu Pharmaceutical Co., Ltd., priority 2004, dated 2010).

How the values were obtained:
Male ICR (CD-1) mice = experiment: Suppressive action on autonomic momentum (behavior quantity) in mice increased by methamphetamine; type: in vivo; details: compound 10 mg/kg intraperitoneally 30 minutes before methamphetamine 2 mg/kg subcutaneous, behavior quantity during 60 minutes
Protocol: Suppressive Action of the Compound to Autonomic Momentum in Mice which Increases by Methamphetamine
Male ICR (CD-1) mice (20 to 40 g) were used and behavior quantity was measured using a behavior quantity measuring device (manufactured by Neuroscience) where movement of animals is perceived by an infrared sensor. A compound or an appropriate solvent was administered to a mouse and, after 30 minutes, a physiological saline solution or methamphetamine was administered. Behavior quantities immediately after that and until 60 minutes thereafter were measured. Difference between the behavior quantity of the methamphetamine-administered group and that of the solvent-administered group during the measuring period was defined as 100% and evaluation was conducted by expressing the inhibitory % in behavior quantity of the test-compound-administered group.

[1] = molecular target: T1, human metabotropic glutamic acid receptor 1a (mGluR1a) (Homo sapiens, UniProt Q13255); experiment: mGluR1-inhibiting action: calcium concentration in CHO cells expressing mGluR1a (FLIPR); type: cell-based; details: suppression of rise in calcium raised by 10 μM glutamic acid, test compound added 5 minutes before agonist
T1 construct: expressed in transfected cells
T1 sequence (Q13255 19-1194): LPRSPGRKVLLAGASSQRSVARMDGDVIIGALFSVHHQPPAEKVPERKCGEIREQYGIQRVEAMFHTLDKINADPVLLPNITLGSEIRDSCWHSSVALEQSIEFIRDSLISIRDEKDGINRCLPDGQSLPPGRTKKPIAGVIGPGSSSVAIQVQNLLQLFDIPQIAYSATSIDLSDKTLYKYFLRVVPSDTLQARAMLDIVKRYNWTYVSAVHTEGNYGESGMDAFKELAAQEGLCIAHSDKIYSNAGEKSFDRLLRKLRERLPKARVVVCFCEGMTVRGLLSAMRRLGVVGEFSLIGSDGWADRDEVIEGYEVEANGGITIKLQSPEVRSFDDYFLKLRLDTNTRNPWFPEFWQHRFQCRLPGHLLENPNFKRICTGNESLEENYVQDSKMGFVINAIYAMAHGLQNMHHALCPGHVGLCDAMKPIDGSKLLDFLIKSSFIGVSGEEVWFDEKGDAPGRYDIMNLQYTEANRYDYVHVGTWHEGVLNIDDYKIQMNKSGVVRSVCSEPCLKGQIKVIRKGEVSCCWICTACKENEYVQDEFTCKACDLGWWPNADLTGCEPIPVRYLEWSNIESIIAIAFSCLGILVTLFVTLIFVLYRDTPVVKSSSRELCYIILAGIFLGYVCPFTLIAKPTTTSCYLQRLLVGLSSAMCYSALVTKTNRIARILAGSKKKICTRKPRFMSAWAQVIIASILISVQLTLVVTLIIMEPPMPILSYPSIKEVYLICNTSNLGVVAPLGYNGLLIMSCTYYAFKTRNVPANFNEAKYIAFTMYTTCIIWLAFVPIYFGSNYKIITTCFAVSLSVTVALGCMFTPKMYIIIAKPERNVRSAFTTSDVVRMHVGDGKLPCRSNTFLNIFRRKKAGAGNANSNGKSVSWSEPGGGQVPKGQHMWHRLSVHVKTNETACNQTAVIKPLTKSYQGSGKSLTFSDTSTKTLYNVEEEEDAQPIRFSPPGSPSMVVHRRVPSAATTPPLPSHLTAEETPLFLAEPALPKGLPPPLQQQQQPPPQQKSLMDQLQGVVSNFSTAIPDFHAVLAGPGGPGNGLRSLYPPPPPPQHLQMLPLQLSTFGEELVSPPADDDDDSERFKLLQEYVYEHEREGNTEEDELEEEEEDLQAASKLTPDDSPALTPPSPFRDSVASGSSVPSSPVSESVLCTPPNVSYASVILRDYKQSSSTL
Protocol: cDNA of human metabotropic glutamic acid receptor 1a (mGluR1a) was transfected to CHO cells using Lipofectamine (manufactured by Gibco BRL) to give a strain which stably expresses mGluR1a. The CHO cells in which mGluR1a was expressed were incubated in a DMEM medium containing 10% of dialyzed fetal bovine serum, 1% of proline, 100 units/ml of penicillin, 0.1 mg/ml of streptomycin sulfate and 2 mM of glutamine.
On the day before the measurement, 4 μM Fluo-3 was incubated in a CO2 incubator for 1 hour to the CHO cells where mGluR1a was expressed being plated with 50,000 cells per well of a 96-well black plate (View Plate manufactured by Packard). After that, the cells were washed for four times with an HBSS solution containing 20 mM of HEPES and 2.5 mM of Probenecid and then calcium concentration in the cells was measured using a Fluorescence Imaging Plate Reader (FLIPR, manufactured by Molecular Device). Incidentally, the test compound and glutamic acid were prepared using an HBSS solution containing 20 mM HEPES and 2.5 mM Probenecid. The test compound was added before 5 minutes of the stimulation with an agonist and, with regard to the agonist, 10 μM glutamic acid was used.

rats = experiment: Suppressive action on pre-pulse inhibition (PPI) decreased by methamphetamine, startle reaction of rats; type: in vivo, rat; details: compound orally 1 to 10 mg/kg 30 minutes before methamphetamine 3 mg/kg, significant suppressive action on decreased PPI
Protocol: Suppressive Action of the Compound to Pre-Pulse Inhibition which Decreases by Methamphetamine)
Investigation was also carried out in a test system of a pre-pulse inhibition where action of antipsychotic agents is able to be specifically detected. A startle reaction being stimulated by combining sonic stimulations of […] and 72 dB (pre-pulse) prior to pulse stimulation and startle reaction to sonic stimulation of 120 dB (pulse stimulation) in the presence of a back sound of 60 dB was measured using a startle reaction measuring device which perceives the body movement of rats (manufactured by San Diego Instrument). The compound of the present invention or an appropriate solvent was administered to a rat and, after 30 minutes, a physiological saline solution of 3 mg/kg of methamphetamine was administered whereupon measurement of a startle reaction was carried out. The startle reactions upon the pulse stimulation and in the presence of pre-pulse were defined as A and B, respectively and values of pre-pulse inhibition (hereinafter, referred to as PPI) were calculated from the following formula.
Method for calculation of PPI: PPI(%)=100×(A−B)/A
When a pre-treatment with methamphetamine was conducted, the startle reaction attenuated to an extent of only about 20% whereby a reduction in pre-pulse inhibition was noted. In the present model, lowering of pre-pulse inhibition by methamphetamine tends to be recovered when a compound having an mGluR1 antagonistic action was orally administered (1 to 10 mg/kg) 30 minutes before the administration of methamphetamine.

Row | SMILES | Motility Quantity (Suppressive %) (Male ICR (CD-1) mice) | IC50 [1] | Inhibition Effect to PPI Disorder (rats)
1 | Cc1c(C2=CCN(C(=O)OC(C)C)CC2)nnn1-c1cccnc1Cl [Example 42, Isopropyl 4-[1-(2-chloropyridin-3-yl)-5-methyl-1H-[1,2,3]-triazol-4-yl]-1,2,3,6-tetrahydropyridine-1-carboxylate] | >80% | 6.7 nM | yes
2 | Cc1c(C2=CCN(C(=O)OC(C)C)CC2)nnn1-c1ccc(F)nc1 [Example 43, Isopropyl 4-[1-(2-fluoropyridin-5-yl)-5-methyl-1H-[1,2,3]triazol-4-yl]-1,2,3,6-tetrahydropyridine-1-carboxylate] | >80% | 6.8 nM | yes
3 | Cc1c(C2=CCN(C(=O)N(C)C(C)C)CC2)nnn1-c1cccnc1F [Example 82, 4-[1-(2-Fluoropyridin-3-yl)-5-methyl-1H-[1,2,3]-triazol-4-yl]-1,2,3,6-tetrahydropyridine-1-carboxylic acid isopropylmethylamide] |  |  | yes
4 | Cc1c(C2=CCN(C(=O)N(C)C(C)C)CC2)nnn1-c1cccnc1Cl [Example 84] | >80% |  | 
